Where “and” joins values, the source holds several entries; their conditions need not be identical. Identical values can stand only once. Records with an inconclusive call do not appear. Starred links: 1 amine or outer side, 2 acyl side, 3 side chain; linkers in the order of their positions; H or OH if unused. Non-standard residues stand in square brackets, D forms with d. Residues, ends and D or L forms follow the SMILES beside them. *: point of attachment. X2 = CCC(=O)CC1CC(C)CC(C(=O)[*:2])N1[*:1]; X1 = CCCCCCCCC(C)C(=O)*; Aib = CC(C)(N)C(=O)O; X3 = CC(CN(C)CCO)N*
Tested on: CD8F1 mice, subcutaneous mammary adenocarcinoma, T/C%
Test: NCI In Vivo Anticancer Drug Screen. Data for tumor model Mammary Adenocarcinoma CD8F1 (subcutaneous) in CD8F1
Conditions: higher = larger tumour
How it was run: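 Ratio of treated to vehicle-control outcome, based on either survival or tumor size, in mice bearing transplantable tumors given the test compound.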

[1] = endpoint: median tumor weight (est.), dose: 6.25 mg/kg/injection, schedule: Q07DX005 (ip), vehicle: water
[2] = endpoint: median tumor weight (est.), dose: 200.0 mg/kg/injection, schedule: Q07DX005 (ip), vehicle: saline
[3] = endpoint: median tumor weight change, dose: 62.0 mg/kg/injection, schedule: Q01DX001 (ip), vehicle: saline with Tween-80
[4] = endpoint: median tumor weight change, dose: 62.5 mg/kg/injection, schedule: Q01DX001 (ip), vehicle: saline with Tween-80
[5] = endpoint: median tumor weight change, dose: 250.0 mg/kg/injection, schedule: Q01DX001 (ip), vehicle: saline with Tween-80

With `N=[N+]=CC(=O)OCC(N)C(=O)O` (stereo unspecified) the T/C (endpoint: median tumor weight (est.), dose: 6.25 mg/kg/injection, schedule: Q07DX005 (ip), vehicle: clinical formulation) was 76 % of control, the T/C [1] was 58 % of control and 79 % of control and the T/C (endpoint: median tumor weight (est.), dose: 12.5 mg/kg/injection, schedule: Q07DX005 (ip), vehicle: clinical formulation) was 71 % of control. For the same molecule, the T/C (endpoint: median tumor weight (est.), dose: 25.0 mg/kg/injection, schedule: Q07DX005 (ip), vehicle: clinical formulation) was 32 % of control, the T/C (endpoint: median tumor weight (est.), dose: 50.0 mg/kg/injection, schedule: Q07DX005 (ip), vehicle: clinical formulation) was 29 % of control and the T/C (endpoint: median tumor weight (est.), dose: 50.0 mg/kg/injection, schedule: Q07DX005 (ip), vehicle: water) was 65 % of control.
For `CCCCCCCCC(C)C(=O)N1CCCC1C(=O)N1C(CC(=O)CC)CC(C)CC1C(=O)NC(C)C(=O)NC(C)(C)C(=O)NC(C)(C)C(=O)NC(C(=O)NC(C)C(=O)NC(C)(C)C(=O)NC(C)(C)C(=O)NC(C)CN(C)CCO)C(C)CC` (stereo unspecified) (X1-P[X2]A[Aib][Aib]IA[Aib][Aib]-X3; configuration not given here), the T/C (endpoint: median tumor weight change, dose: 3.0 mg/kg/injection, schedule: Q01DX001 (ip), vehicle: saline with Tween-80) was 100 % of control and the T/C (endpoint: median tumor weight change, dose: 3.12 mg/kg/injection, schedule: Q01DX001 (ip), vehicle: other) was 123 % of control.
With `N=C(N)SCc1c2ccccc2c(CSC(=N)N)c2ccccc12` the T/C (endpoint: median tumor weight (est.), dose: 50.0 mg/kg/injection, schedule: Q07DX005 (ip), vehicle: saline) was 105 % of control and 119 % of control, the T/C (endpoint: median tumor weight (est.), dose: 100.0 mg/kg/injection, schedule: Q07DX005 (ip), vehicle: saline) was 107 % of control and the T/C [2] was 25 % of control. The T/C (endpoint: median tumor weight change, dose: 50.0 mg/kg/injection, schedule: Q01DX001 (ip), vehicle: saline + alcohol) was 77 % of control, the T/C (endpoint: median tumor weight change, dose: 50.0 mg/kg/injection, schedule: Q01DX001 (ip), vehicle: suspension in saline) was 90 % of control and the T/C (endpoint: median tumor weight change, dose: 100.0 mg/kg/injection, schedule: Q01DX001 (ip), vehicle: saline + alcohol) was 99 % of control. For the same molecule, the T/C (endpoint: median tumor weight change, dose: 100.0 mg/kg/injection, schedule: Q01DX001 (ip), vehicle: suspension in saline) was 102 % of control and 111 % of control, the T/C (endpoint: median tumor weight change, dose: 200.0 mg/kg/injection, schedule: Q01DX001 (ip), vehicle: saline + alcohol) was 58 % of control and the T/C (endpoint: median tumor weight change, dose: 200.0 mg/kg/injection, schedule: Q01DX001 (ip), vehicle: suspension in saline) was 84 % of control and 86 % of control. The T/C (endpoint: median tumor weight change, dose: 400.0 mg/kg/injection, schedule: Q01DX001 (ip), vehicle: saline + alcohol) was 31 % of control.
For `O=C(O)CC(=O)O.[NH-]C1CCCCC1[NH-].[Pt+2]` (stereo unspecified), the T/C (endpoint: median tumor weight (est.), dose: 20.0 mg/kg/injection, schedule: Q07DX005 (ip), vehicle: dextrose) was 14 % of control, the T/C (endpoint: median tumor weight (est.), dose: 40.0 mg/kg/injection, schedule: Q07DX005 (ip), vehicle: dextrose) was 38 % of control and the T/C (endpoint: median tumor weight (est.), dose: 80.0 mg/kg/injection, schedule: Q07DX005 (ip), vehicle: dextrose) was 67 % of control.
`O=Cc1c(O)c2ccccc2[nH]c1=O` was tested, and the T/C [3] was 112 % of control, the T/C [4] was 69 % of control and the T/C [5] was 61 % of control and 67 % of control. The T/C (endpoint: median tumor weight change, dose: 500.0 mg/kg/injection, schedule: Q01DX001 (ip), vehicle: saline with Tween-80) was 55 % of control.
With `NS(=O)(=O)OCCCCCCCOS(N)(=O)=O` the T/C [3] was 66 % of control, the T/C [4] was 22 % of control and the T/C (endpoint: median tumor weight change, dose: 125.0 mg/kg/injection, schedule: Q01DX001 (ip), vehicle: saline with Tween-80) was 33 % of control and 34 % of control. The T/C [5] was -27 % of control and -36 % of control.
With `C#C[C@]1(O)CC[C@H]2[C@@H]3CCc4cc(O)ccc4[C@H]3CC[C@@]21C` the T/C (endpoint: median tumor weight change, dose: 12.5 mg/kg/injection, schedule: Q01DX001 (ip), vehicle: Klucel (hydroxypropylcellulose) (HPC)) was 92 % of control, the T/C (endpoint: median tumor weight change, dose: 25.0 mg/kg/injection, schedule: Q01DX001 (ip), vehicle: Klucel (hydroxypropylcellulose) (HPC)) was 78 % of control and the T/C (endpoint: median tumor weight change, dose: 50.0 mg/kg/injection, schedule: Q01DX001 (ip), vehicle: Klucel (hydroxypropylcellulose) (HPC)) was 75 % of control. The T/C (endpoint: median tumor weight change, dose: 56.0 mg/kg/injection, schedule: Q01DX001 (ip), vehicle: Klucel (hydroxypropylcellulose) (HPC)) was 60 % of control, the T/C (endpoint: median tumor weight change, dose: 100.0 mg/kg/injection, schedule: Q01DX001 (ip), vehicle: Klucel (hydroxypropylcellulose) (HPC)) was 63 % of control and the T/C (endpoint: median tumor weight change, dose: 112.0 mg/kg/injection, schedule: Q01DX001 (ip), vehicle: Klucel (hydroxypropylcellulose) (HPC)) was 75 % of control. For the same molecule, the T/C (endpoint: median tumor weight change, dose: 200.0 mg/kg/injection, schedule: Q01DX001 (ip), vehicle: Klucel (hydroxypropylcellulose) (HPC)) was 46 % of control, the T/C (endpoint: median tumor weight change, dose: 225.0 mg/kg/injection, schedule: Q01DX001 (ip), vehicle: Klucel (hydroxypropylcellulose) (HPC)) was 66 % of control and the T/C (endpoint: median tumor weight change, dose: 400.0 mg/kg/injection, schedule: Q01DX001 (ip), vehicle: Klucel (hydroxypropylcellulose) (HPC)) was 52 % of control. The T/C (endpoint: median tumor weight change, dose: 450.0 mg/kg/injection, schedule: Q01DX001 (ip), vehicle: Klucel (hydroxypropylcellulose) (HPC)) was 101 % of control and the T/C (endpoint: median tumor weight change, dose: 450.0 mg/kg/injection, schedule: Q01DX001 (ip), vehicle: saline with Tween-80) was 101 % of control.
For `Nc1n[n+](-c2ccc(Cl)cc2)no1`, the T/C [1] was 184 % of control, the T/C (endpoint: median tumor weight (est.), dose: 12.5 mg/kg/injection, schedule: Q07DX005 (ip), vehicle: water) was 103 % of control and the T/C (endpoint: median tumor weight (est.), dose: 25.0 mg/kg/injection, schedule: Q07DX005 (ip), vehicle: water) was 88 % of control.
For `O=C(NO)c1ccccc1`, the T/C (endpoint: median tumor weight (est.), dose: 25.0 mg/kg/injection, schedule: Q07DX005 (ip), vehicle: suspension in saline) was 46 % of control, the T/C (endpoint: median tumor weight (est.), dose: 50.0 mg/kg/injection, schedule: Q07DX005 (ip), vehicle: suspension in saline) was 109 % of control and the T/C (endpoint: median tumor weight (est.), dose: 100.0 mg/kg/injection, schedule: Q07DX005 (ip), vehicle: suspension in saline) was 293 % of control.
For `CCC(C(=O)O)C(=O)O.[NH2-].[NH2-].[Pt+2]`, the T/C (endpoint: median tumor weight change, dose: 15.62 mg/kg/injection, schedule: Q01DX001 (ip), vehicle: saline) was 172 % of control, the T/C (endpoint: median tumor weight change, dose: 16.0 mg/kg/injection, schedule: Q01DX001 (ip), vehicle: saline) was 121 % of control and the T/C (endpoint: median tumor weight change, dose: 31.0 mg/kg/injection, schedule: Q01DX001 (ip), vehicle: saline) was 46 % of control. The T/C (endpoint: median tumor weight change, dose: 31.25 mg/kg/injection, schedule: Q01DX001 (ip), vehicle: saline) was 87 % of control, the T/C (endpoint: median tumor weight change, dose: 62.0 mg/kg/injection, schedule: Q01DX001 (ip), vehicle: saline) was 68 % of control and the T/C (endpoint: median tumor weight change, dose: 62.5 mg/kg/injection, schedule: Q01DX001 (ip), vehicle: saline) was 92 % of control. For the same molecule, the T/C (endpoint: median tumor weight change, dose: 125.0 mg/kg/injection, schedule: Q01DX001 (ip), vehicle: saline) was 2 % of control and 26 % of control.
For `COC1=C(N)C(=O)c2nc(-c3nc(C(=O)O)c(C)c(-c4ccc(OC)c(OC)c4O)c3N)ccc2C1=O`, the T/C (endpoint: median tumor weight (est.), dose: 0.1 mg/kg/injection, schedule: Q07DX005 (ip), vehicle: Klucel (hydroxypropylcellulose) (HPC)) was 69 % of control, the T/C (endpoint: median tumor weight (est.), dose: 0.1 mg/kg/injection, schedule: Q07DX005 (ip), vehicle: saline) was 16 % of control and 34 % of control and the T/C (endpoint: median tumor weight (est.), dose: 0.12 mg/kg/injection, schedule: Q07DX005 (ip), vehicle: Klucel (hydroxypropylcellulose) (HPC)) was 10 % of control. The T/C (endpoint: median tumor weight (est.), dose: 0.2 mg/kg/injection, schedule: Q07DX005 (ip), vehicle: Klucel (hydroxypropylcellulose) (HPC)) was 12 % of control, the T/C (endpoint: median tumor weight (est.), dose: 0.2 mg/kg/injection, schedule: Q07DX005 (ip), vehicle: saline) was 11 % of control and 20 % of control and the T/C (endpoint: median tumor weight (est.), dose: 0.4 mg/kg/injection, schedule: Q07DX005 (ip), vehicle: Klucel (hydroxypropylcellulose) (HPC)) was 7 % of control. The T/C (endpoint: median tumor weight (est.), dose: 0.4 mg/kg/injection, schedule: Q07DX005 (ip), vehicle: saline) was 3 % of control and the T/C (endpoint: median tumor weight change, dose: 0.5 mg/kg/injection, schedule: Q01DX001 (ip), vehicle: Klucel (hydroxypropylcellulose) (HPC)) was 32 % of control and 41 % of control.
With `CC1=CC2c3cccc4[nH]cc(c34)CC2N(C)C1` (stereo unspecified) the T/C (endpoint: median tumor weight change, dose: 25.0 mg/kg/injection, schedule: Q01DX001 (ip), vehicle: suspension in saline) was 115 % of control.
`CN(C)CC(Cl)CCl` (stereo unspecified) was tested, and the T/C (endpoint: mean tumor weight, dose: 50.0 mg/kg/injection, schedule: Q07DX009 (ip), vehicle: saline) was 39 % of control, the T/C (endpoint: mean tumor weight, dose: 100.0 mg/kg/injection, schedule: Q07DX006 (ip), vehicle: saline) was 88 % of control and the T/C (endpoint: mean tumor weight, dose: 100.0 mg/kg/injection, schedule: Q07DX009 (ip), vehicle: saline) was 94 % of control. The T/C (endpoint: mean tumor weight, dose: 200.0 mg/kg/injection, schedule: Q07DX006 (ip), vehicle: saline) was 107 % of control, the T/C (endpoint: mean tumor weight, dose: 200.0 mg/kg/injection, schedule: Q07DX009 (ip), vehicle: saline) was 24 % of control and the T/C (endpoint: median tumor weight (est.), dose: 12.5 mg/kg/injection, schedule: Q07DX005 (ip), vehicle: saline) was 92 % of control. For the same molecule, the T/C (endpoint: median tumor weight (est.), dose: 25.0 mg/kg/injection, schedule: Q07DX005 (ip), vehicle: saline) was 97 % of control and 117 % of control, the T/C [2] was 62 % of control and 73 % of control and the T/C (endpoint: median tumor weight (est.), dose: 400.0 mg/kg/injection, schedule: Q07DX005 (ip), vehicle: saline) was 37 % of control.

Reference: PubChem BioAssay AID220 (DTP/NCI, 2004)
